Reference: US10072017B2, “Compounds and methods for the treatment of cystic fibrosis” (Flatley Discovery Lab, LLC, priority 2015, dated 2018)

Target: T1, CFTR (Homo sapiens, UniProt P13569, DEL508-508)
T1 construct: Primary CF airway epithelial cells were obtained from the UNC Cystic Fibrosis Tissue Procurement and Cell Culture Core; host or cells: primary CF airway epithelial cells
Assay: Equivalent current assay in Primary CF airway epithelial cells (NAUC)
Assay type: cell-based
Conditions: 24 h, normalized to VX809 (3 μM) positive control; for Nauc @ 3 μM: 3 μM test compound; for Nauc @ 10 μM: 10 μM test compound
How it was run: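 NAUC is the area under the curve from forskolin (10 μM) plus VX770 (1 μM) addition to CFTR-172 (20 μM) block, after benzamil (5 μM). It is corrected for vehicle and scaled to 3 μM VX809 as 1.0 and DMSO as 0.0. Cells were exposed for 24 h to compounds with VX809; medians of ≥4 replicates were fitted sigmoidally.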

T1 sequence (P13569 with tags, fused parts or gaps DEL508-508): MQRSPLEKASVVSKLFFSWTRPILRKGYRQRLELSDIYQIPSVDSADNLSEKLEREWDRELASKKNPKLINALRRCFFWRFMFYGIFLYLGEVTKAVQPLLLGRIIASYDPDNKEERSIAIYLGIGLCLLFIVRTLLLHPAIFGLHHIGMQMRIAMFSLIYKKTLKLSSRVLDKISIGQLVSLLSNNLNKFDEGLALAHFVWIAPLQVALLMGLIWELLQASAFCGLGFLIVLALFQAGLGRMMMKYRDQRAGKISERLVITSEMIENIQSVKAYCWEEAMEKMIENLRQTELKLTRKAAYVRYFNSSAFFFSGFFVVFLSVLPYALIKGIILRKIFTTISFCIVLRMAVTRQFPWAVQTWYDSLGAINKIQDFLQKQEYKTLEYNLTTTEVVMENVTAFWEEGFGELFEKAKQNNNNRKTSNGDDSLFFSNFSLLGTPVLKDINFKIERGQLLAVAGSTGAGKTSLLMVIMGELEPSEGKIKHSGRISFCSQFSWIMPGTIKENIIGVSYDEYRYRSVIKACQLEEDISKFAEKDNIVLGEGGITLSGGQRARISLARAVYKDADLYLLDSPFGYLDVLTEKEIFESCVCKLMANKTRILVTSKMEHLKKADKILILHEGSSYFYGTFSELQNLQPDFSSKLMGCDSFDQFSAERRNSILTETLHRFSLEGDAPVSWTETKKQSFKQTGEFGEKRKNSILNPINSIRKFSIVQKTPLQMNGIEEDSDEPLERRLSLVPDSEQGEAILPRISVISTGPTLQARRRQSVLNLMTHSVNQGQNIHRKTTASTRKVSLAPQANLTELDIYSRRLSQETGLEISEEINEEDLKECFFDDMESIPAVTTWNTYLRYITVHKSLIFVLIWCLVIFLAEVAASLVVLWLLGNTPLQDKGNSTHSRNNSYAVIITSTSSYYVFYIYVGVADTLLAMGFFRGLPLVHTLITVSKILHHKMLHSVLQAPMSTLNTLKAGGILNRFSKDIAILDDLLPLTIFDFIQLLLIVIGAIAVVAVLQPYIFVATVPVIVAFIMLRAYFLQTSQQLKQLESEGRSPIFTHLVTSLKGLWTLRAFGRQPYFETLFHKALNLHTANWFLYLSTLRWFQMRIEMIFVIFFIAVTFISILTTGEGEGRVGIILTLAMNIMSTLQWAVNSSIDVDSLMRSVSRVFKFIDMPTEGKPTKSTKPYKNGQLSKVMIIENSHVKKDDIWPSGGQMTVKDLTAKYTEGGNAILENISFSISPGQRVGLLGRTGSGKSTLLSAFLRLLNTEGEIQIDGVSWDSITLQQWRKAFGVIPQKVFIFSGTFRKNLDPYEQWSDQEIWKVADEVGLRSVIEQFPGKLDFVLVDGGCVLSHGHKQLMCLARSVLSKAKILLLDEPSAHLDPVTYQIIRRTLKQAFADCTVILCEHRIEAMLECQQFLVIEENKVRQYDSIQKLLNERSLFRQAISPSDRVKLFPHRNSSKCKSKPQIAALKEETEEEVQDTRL

Structure (SMILES) | Nauc @ 3 μM | Nauc @ 10 μM
CCC(C)C1NC2(C(=O)Nc3c(Cl)cc(Cl)cc32)C2C(=O)N(c3cc(Cl)cc(OC)c3)C(=O)C12 (centres unmarked) [Example 7, 3′-(Sec-butyl)-5,7-dichloro-5′-(3-chloro-5-methoxyphenyl)-2′,3′,3a′,6a′-tetrahydro-4′H-spiro[indoline-3,1′-pyrrolo[3,4-c]pyrrole]-2,4′,6′(5′H)-trione] | ++ (NAUC “++” refers to an observed NAUC 170-140% of positive control) | ++ (NAUC “++” refers to an observed NAUC 170-140% of positive control)
O=C1C2C3CCCN3C3(C(=O)Nc4c(Cl)cc(Cl)cc43)C2C(=O)N1CCCBr (centres unmarked) [Example 48] | ++ (NAUC “++” refers to an observed NAUC 170-140% of positive control) | + (NAUC “+” refers to an observed NAUC <140% of positive control)
O=C1C2C3C[C@H](NS(=O)(=O)c4ccccc4)CN3C3(C(=O)Nc4c(Cl)cc(Cl)cc43)C2C(=O)N1c1cc(Cl)cc(Cl)c1 (single isomer, unassigned) [Example 58] | ++ (NAUC “++” refers to an observed NAUC 170-140% of positive control) | +++ (NAUC “+++” refers to an observed NAUC >170% of positive control)
O=C1C2C3CC(=C(F)F)CN3C3(C(=O)Nc4c(Cl)cc(Cl)cc43)C2C(=O)N1c1cc(Br)cc(Br)c1 (centres unmarked) [Example 123] | + (NAUC “+” refers to an observed NAUC <140% of positive control) | +++ (NAUC “+++” refers to an observed NAUC >170% of positive control)
O=C1C2C(C(=O)N1c1cc(Cl)cc(Cl)c1)C1(NC23CCC3)C(=O)Nc2c(Cl)cc(Cl)cc21 (centres unmarked) [Example 211] | ++ (NAUC “++” refers to an observed NAUC 170-140% of positive control) | ++ (NAUC “++” refers to an observed NAUC 170-140% of positive control)
CC1(C)CC2C3C(=O)N(c4cc(Cl)cc(Cl)n4)C(=O)C3C3(C(=O)Nc4c(Cl)cc(Cl)cc43)N2C1 (centres unmarked) [Example 175] | +++ (NAUC “+++” refers to an observed NAUC >170% of positive control) | +++ (NAUC “+++” refers to an observed NAUC >170% of positive control)
O=C1C2C(Cc3ccccc3OC(F)(F)F)NC3(C(=O)Nc4c(Cl)cc(Cl)cc43)C2C(=O)N1c1cc(Cl)cc(Cl)c1 (centres unmarked) [Example 222] | +++ (NAUC “+++” refers to an observed NAUC >170% of positive control) | ++ (NAUC “++” refers to an observed NAUC 170-140% of positive control)
C[C@]1(F)CC2C3C(=O)N(c4cc(Cl)cc(Cl)c4)C(=O)C3C3(C(=O)Nc4c(Cl)cc(Cl)cc43)N2C1 (some centres unmarked) [Example 204] | + (NAUC “+” refers to an observed NAUC <140% of positive control) | +++ (NAUC “+++” refers to an observed NAUC >170% of positive control)
C[C@@]1(F)CC2C3C(=O)N(c4cc(Cl)cc(Cl)n4)C(=O)C3C3(C(=O)Nc4c(Cl)cc(Cl)cc43)N2C1 (some centres unmarked) [Example 173] | +++ (NAUC “+++” refers to an observed NAUC >170% of positive control) | +++ (NAUC “+++” refers to an observed NAUC >170% of positive control)
[2H]C12C(=O)N(c3cc(Cl)c(OC)c(Cl)c3)C(=O)C1([2H])C1(C(=O)Nc3c(Cl)cc(Cl)cc31)N1C[C@@H](Cl)CC12 (some centres unmarked) [Example 148] | +++ (NAUC “+++” refers to an observed NAUC >170% of positive control) | +++ (NAUC “+++” refers to an observed NAUC >170% of positive control)
O=C1C2C(CO)NC3(C(=O)Nc4c(Cl)cc(Cl)cc43)C2C(=O)N1c1cc(Cl)cc(Cl)c1 (centres unmarked) [Example 165] | ++ (NAUC “++” refers to an observed NAUC 170-140% of positive control) | ++ (NAUC “++” refers to an observed NAUC 170-140% of positive control)
COc1c(Cl)cc(N2C(=O)C3C4CC(F)(F)CN4C4(C(=O)Nc5c(Cl)cc(Cl)cc54)C3C2=O)cc1Cl (centres unmarked) [Example 194] | +++ (NAUC “+++” refers to an observed NAUC >170% of positive control) | ++ (NAUC “++” refers to an observed NAUC 170-140% of positive control)
COc1cccc(N2C(=O)C3C4C[C@H](Cl)CN4C4(C(=O)Nc5c(Cl)cc(Cl)cc54)C3C2=O)c1 (some centres unmarked) [Example 113] | + (NAUC “+” refers to an observed NAUC <140% of positive control) | ++ (NAUC “++” refers to an observed NAUC 170-140% of positive control)
O=C1C2C(Cc3ccccc3)NC3(C(=O)Nc4c(Cl)cc(Cl)cc43)C2C(=O)N1c1cc(Cl)cc(Cl)c1 (centres unmarked) [Example 154] | +++ (NAUC “+++” refers to an observed NAUC >170% of positive control) | +++ (NAUC “+++” refers to an observed NAUC >170% of positive control)
O=C1C2C(C(=O)N1c1cc(Cl)cc(Cl)c1)C(c1ccc(F)nc1)N1CCCC21 (centres unmarked) [Example 9, 2-(3,5-Dichlorophenyl)-4-(6-fluoropyridin-3-yl)hexahydropyrrolo[3,4-a]pyrrolizine-1,3(2H,4H)-dione] | + (NAUC “+” refers to an observed NAUC <140% of positive control) | ++ (NAUC “++” refers to an observed NAUC 170-140% of positive control)
Cc1nc(CC2NC3(C(=O)Nc4c(Cl)cc(Cl)cc43)C3C(=O)N(c4cc(Cl)cc(Cl)c4)C(=O)C23)cs1 (centres unmarked) [Example 248] | + (NAUC “+” refers to an observed NAUC <140% of positive control) | ++ (NAUC “++” refers to an observed NAUC 170-140% of positive control)
C[C@]1(F)CC2C3C(=O)N(c4cc(Cl)cc(Cl)c4)C(=O)C3C3(C(=O)Nc4c(Cl)cc(Cl)cc43)N2C1 (single isomer, unassigned) [Example 249] | ++ (NAUC “++” refers to an observed NAUC 170-140% of positive control) | + (NAUC “+” refers to an observed NAUC <140% of positive control)
N#C[C@H]1CC2C3C(=O)N(c4cc(Cl)cc(Cl)c4)C(=O)C3C3(C(=O)Nc4c(Cl)cc(Cl)cc43)N2C1 (some centres unmarked) [Example 68] | + (NAUC “+” refers to an observed NAUC <140% of positive control) | +++ (NAUC “+++” refers to an observed NAUC >170% of positive control)
[2H]C12C(=O)N(c3cc(Cl)cc(OC)c3)C(=O)C1([2H])C1(C(=O)Nc3c(Cl)cc(Cl)cc31)N1C[C@@H](F)CC12 (some centres unmarked) [Example 145] | + (NAUC “+” refers to an observed NAUC <140% of positive control) | +++ (NAUC “+++” refers to an observed NAUC >170% of positive control)
O=C1C2C3CCCN3C3(C(=O)Nc4c(Cl)cc(Cl)cc43)C2C(=O)N1c1cncc(Cl)c1 (centres unmarked) [Example 20] | + (NAUC “+” refers to an observed NAUC <140% of positive control) | ++ (NAUC “++” refers to an observed NAUC 170-140% of positive control)
O=C1C2C3CCCN3C3(C(=O)Nc4c(Cl)cc(Cl)cc43)C2C(=O)N1c1cc(Br)cc(Br)c1 (centres unmarked) [Example 27] | ++ (NAUC “++” refers to an observed NAUC 170-140% of positive control) | ++ (NAUC “++” refers to an observed NAUC 170-140% of positive control)
COc1c(Cl)cc(N2C(=O)C3C4CC(C)(C)CN4C4(C(=O)Nc5c(Cl)cc(Cl)cc54)C3C2=O)cc1Cl (single isomer, unassigned) [Example 141] | + (NAUC “+” refers to an observed NAUC <140% of positive control) | ++ (NAUC “++” refers to an observed NAUC 170-140% of positive control)
